Measured values reported in article PMC6222425, “Novel 5′-Norcarbocyclic Derivatives of Bicyclic Pyrrolo- and Furano[2,3-d]Pyrimidine Nucleosides” (Molecules : A Journal of Synthetic Chemistry and Natural …, 2018).
Read-outs that look alike come from different tables or passages of the source.

Columns and labels:
Assay type in all cases: cell-based
[1] = tested on: B16 (mouse melanoma) cells; assay: Cell viability analysis by MTT assay, B16; conditions: for IC50: MTT, 48 h incubation, read-out: Antiproliferative activity, IC50, B16; for Selectivity index, B16: ratio of IC50 on normal hFF3 cells to IC50 of B16
Method: (§1) The target compounds were tested on different lines of tumor cells, HuTu-80 (human duodenal cancer), B16 (mouse melanoma), A549 (human lung adenocarcinoma), KB-3-1 (human squamous cell carcinoma), HeLa (human squamous cell carcinoma of the cervix), as well as on human noncancer cells hFF3.
(§2) Human KB-3-1 epidermoid carcinoma cell line, human HeLa cervical epithelioid carcinoma cell line, human HuTu-80 duodenal cancer cells, human A549 lung carcinoma epithelial cells, mouse B16 melanoma cell line and human hFF3 fibroblast cells were obtained from the Russian Cell Culture Collection (St. Petersburg, Russia) and were cultured in DMEM (hFF3 cells in IMDM) supplemented with 10% (v/v) heat-inactivated fetal bovine serum, penicillin (100 U mL^−1), streptomycin (100 µg mL^−1) and amphotericin ([…]). Cells were maintained in a humidified atmosphere of 5% CO2 at 37 °C.
(§3) All compounds were dissolved in dimethylsulfoxide (DMSO) and stock solutions (10 mmol L^−1) were stored at −20 °C.
(§4) Cells growing in the logarithmic phase were seeded in triplicate in 96-well plates at a density of 5 × 10^3 cells per well for HeLa and HuTu-80 cells, 7 × 10^3 cells per well for KB-3-1 and hFF3, 10 × 10^3 for A549 and 20 × 10^3 for B16. The plates were incubated at 37 °C in a humidified 5% CO2 atmosphere. Cells were allowed to adhere to the surface for 24 h and then tested compounds were added at different concentrations and incubation was continued for 48 h. Then [3-(4,5-dimethylthiazol-2-yl)-2,5-diphenyltetrazolium bromide] (MTT) solution (10 µL, 5 mg mL^−1) was added to each well and the incubation was continued for an additional 3 h. The dark blue formazan crystals formed within the healthy cells were solubilized with DMSO and the absorbance was measured using a Multiscan RC plate reader at 570 nm. The IC50 was determined as the compound concentration required to decrease the A570 to 50% compared to the control (no tested compounds, DMSO) and was determined by interpolation from dose-response curves.

[2] = tested on: HuTu-80 (human duodenal cancer) cells; assay: Cell viability analysis by MTT assay, HuTu-80; conditions: for IC50: Homo sapiens, HuTu80, MTT, 48 h incubation, read-out: Antiproliferative activity, IC50, HuTu80; for Selectivity index, HuTu80: ratio of IC50 on normal hFF3 cells to IC50 of HuTu80
Method: as §1, §2, §3, §4

[3] = tested on: human noncancer cells hFF3 (fibroblasts); assay: Cell viability analysis by MTT assay, normal hFF3 cells; conditions: for IC50: normal cells, MTT, 48 h incubation, read-out: Antiproliferative activity, IC50, hHFF3; for Toxic effect on normal hFF3 cells: concentrations up to 100 μM
Method: as §1, §2, §3, §4

[4] = tested on: A549 (human lung adenocarcinoma) cells; assay: Cell viability analysis by MTT assay, A549; conditions: for IC50: Homo sapiens, A549, MTT, 48 h incubation, read-out: Antiproliferative activity, IC50, A549; for Selectivity index, A549: ratio of IC50 on normal hFF3 cells to IC50 of A549
Method: as §1, §2, §3, §4

[5] = tested on: KB-3-1 (human epidermoid carcinoma) cells; assay: Cell viability analysis by MTT assay, KB-3-1; conditions: for IC50: MTT, 48 h incubation, read-out: Antiproliferative activity, IC50, KB-3-1; for Selectivity index, KB-3-1: ratio of IC50 on normal hFF3 cells to IC50 of KB-3-1
Method: as §1, §2, §3, §4

[6] = tested on: HeLa (human cervical epithelioid carcinoma) cells; assay: Cell viability analysis by MTT assay, HeLa; conditions: for IC50: Homo sapiens, HeLa, MTT, 48 h incubation, read-out: Antiproliferative activity, IC50, HeLa; for Selectivity index, HeLa: ratio of IC50 on normal hFF3 cells to IC50 of HeLa
Method: as §1, §2, §3, §4

| IC50 ([1]; Mus musculus, 48 h) [µM] | IC50 [2] [µM] | IC50 [4] [µM] | IC50 ([5]; Homo sapiens, KB 3-1, 48 h) [µM] | IC50 [6] [µM] | IC50 [1] [µM] | IC50 [5] [µM] | Structure (SMILES) | Selectivity index, B16 [1] | Selectivity index, HuTu80 [2] | IC50 ([3]; Homo sapiens, HFF-3, 48 h) [µM] | Selectivity index, A549 [4] | Selectivity index, KB-3-1 [5] | Selectivity index, HeLa [6] | Toxic effect on normal hFF3 cells [3] | IC50 [3] [µM] |
| --- | --- | --- | --- | --- | --- | --- | --- | --- | --- | --- | --- | --- | --- | --- | --- |
| 10.1 ± 2.3 | 9.9 ± 1.7 | 7.2 ± 0.8 | 1.7 ± 0.2 | 2.3 ± 0.3 | – | – | CC(C)(C)c1ccc(-c2cc3cn(C4C=CC(O)C4)c(=O)nc3o2)cc1 (centres unmarked) [Compound 3h, 1-(4′-Hydroxy-2′-cyclopenten-1′-yl)-6-tertbutylphenyl-3H-furano[2,3-d]-pyrimidine-2-one] | 0.5 | 0.5 | 5.1 ± 0.7 | 0.7 | 3 | 2.2 | – | – |
| > 100 | 80.4 ± 0.9 | 45.3 ± 3.9 | 25.2 ± 3.4 | 50.1 ± 4.7 | – | – | CCCCCc1cc2cn(C3C=CC(O)C3)c(=O)nc2[nH]1 (centres unmarked) [Compound 4b, 1-(4′-Hydroxy-2′-cyclopenten-1′-yl)-6-pentyl-3H-pyrrolo[2,3-d]-pyrimidine-2-one] | – | >1.2 | > 100 | >2.2 | >3.9 | >1.9 | – | – |
| 3.1 ± 0.3 | 3.1 ± 0.4 | 4.5 ± 0.2 | 4.5 ± 0.9 | 3.2 ± 0.4 | – | – | CCCCCCCCCCCCc1cc2cn(C3C=CC(O)C3)c(=O)nc2[nH]1 (centres unmarked) [Compound 4f, 1-(4′-Hydroxy-2′-cyclopenten-1′-yl)-6-dodecyl-3H-pyrrolo[2,3-d]-pyrimidine-2-one] | 1.1 | 1.1 | 3.4 ± 0.7 | 0.8 | 0.8 | 1 | – | – |
| > 100 | > 100 | > 100 | 30.1 ± 4.1 | 45.3 ± 5.1 | – | – | O=c1nc2oc(-c3ccccc3)cc2cn1C1C=CC(O)C1 (centres unmarked) [Compound 3g, 1-(4′-Hydroxy-2′-cyclopenten-1′-yl)-6-phenyl-3H-furano[2,3-d]-pyrimidine-2-one] | – | – | > 100 | – | >3.3 | >2.2 | not toxic | – |
| 21.3 ± 3.1 | 7.3 ± 2.4 | 36.2 ± 11.3 | 11.2 ± 5.3 | 4.5 ± 0.9 | – | – | CCCCCCCCCCc1cc2cn(C3C=CC(O)C3)c(=O)nc2o1 (centres unmarked) [Compound 3e, 1-(4′-hydroxy-2′-cyclopenten-1′-yl)-6-decyl-3Hfurano[2,3-d]-pyrimidine-2-one] | 0.5 | 1.6 | 11.6 ± 2.1 | 0.3 | 1 | 2.6 | – | – |
| 46.2 ± 3.4 | 46.3 ± 5.7 | 54.1 ± 6.1 | 47.3 ± 4.2 | 40.6 ± 3.9 | – | – | CCCCCCCCc1cc2cn(C3C=CC(O)C3)c(=O)nc2o1 (centres unmarked) [Compound 3d, 1-(4′-hydroxy-2′-cyclopenten-1′-yl)-6-octyl-3Hfurano[2,3-d]-pyrimidine-2-one] | 1 | 1 | 48.2 ± 5.1 | 0.9 | 1 | 1.2 | – | – |
| 4.5 ± 0.3 | 7.1 ± 0.8 | 10.5 ± 1.9 | 10.2 ± 4.1 | 2.5 ± 0.3 | – | – | CCCCCCCCCCCCc1cc2cn(C3C=CC(O)C3)c(=O)nc2o1 (centres unmarked) [Compound 3f, 1-(4′-hydroxy-2′-cyclopenten-1′-yl)-6-dodecyl-3Hfurano[2,3-d]-pyrimidine-2-one] | 2.3 | 1.4 | 10.2 ± 1.8 | 1 | 1 | 4.1 | – | – |
| 35 | 25.4 ± 3.1 | 25.3 ± 2.9 | 15 | 25.8 ± 4.6 | 35.6 ± 4.2 | 15.3 ± 1.1 | CC(C)(C)c1ccc(-c2cc3cn(C4C=CC(O)C4)c(=O)nc3[nH]2)cc1 (centres unmarked) [Compound 4h, 1-(4′-Hydroxy-2′-cyclopenten-1′-yl)-6-(4-tertbutylphenyl)-3H-pyrrolo[2,3-d]-pyrimidine-2-one] | 1.9 | 2.8 | 70 | 2.8 | 4.6 | 2.7 | – | 70.9 ± 9.1 |
| > 100 | 20.4 ± 3.9 | 35.2 ± 4.1 | 25.6 ± 2.9 | 50.7 ± 6.2 | – | – | CCCCCCc1cc2cn(C3C=CC(O)C3)c(=O)nc2[nH]1 (centres unmarked) [Compound 4c, 1-(4′-Hydroxy-2′-cyclopenten-1′-yl)-6-hexyl-3H-pyrrolo[2,3-d]-pyrimidine-2-one] | – | >4.9 | > 100 | >2.8 | >3.9 | >1.9 | – | – |
| > 100 | 30.2 ± 2.9 | 100 | 25.4 ± 3.1 | 20.1 ± 1.9 | – | – | CCCCCCCCc1cc2cn(C3C=CC(O)C3)c(=O)nc2[nH]1 (centres unmarked) [Compound 4d, 1-(4′-Hydroxy-2′-cyclopenten-1′-yl)-6-octyl-3H-pyrrolo[2,3-d]-pyrimidine-2-one] | – | >3.3 | > 100 | – | >3.9 | >4.9 | – | – |
| 13.4 ± 3.2 | 8.5 ± 1.1 | 15.6 ± 4.1 | 9.8 ± 0.7 | 11.1 ± 0.9 | – | – | CCCCCc1ccc(-c2cc3cn(C4C=CC(O)C4)c(=O)nc3[nH]2)cc1 (centres unmarked) [Compound 4i, 1-(4′-Hydroxy-2′-cyclopenten-1′-yl)-6-(4-pentylphenyl)-3H-pyrrolo[2,3-d]-pyrimidine-2-one] | 1.6 | 2.6 | 21.9 ± 4.8 | 1.4 | 2.2 | 1.9 | – | – |
| > 100 | > 100 | > 100 | 40.1 ± 5.2 | 63.4 ± 6.8 | – | – | CCCc1cc2cn(C3C=CC(O)C3)c(=O)nc2o1 (centres unmarked) [Compound 3a, 1-(4′-Hydroxy-2′-cyclopenten-1′-yl)-6-propyl-3H-furano[2,3-d]-pyrimidine-2-one] | – | – | > 100 | – | >2.5 | >1.6 | not toxic | – |
| 25 | 23.4 ± 7.8 | 36.2 ± 6.2 | 18.4 ± 7.1 | 11 ± 2.1 | 25.1 ± 2.4 | – | CCCCCCCCCCc1cc2cn(C3C=CC(O)C3)c(=O)nc2[nH]1 (centres unmarked) [Compound 4e, 1-(4′-Hydroxy-2′-cyclopenten-1′-yl)-6-decyl-3H-pyrrolo[2,3-d]-pyrimidine-2-one] | 2.5 | 2.6 | 63 | 1.7 | 3.4 | 5.7 | – | 62.5 ± 8.3 |
| > 100 | 100 | 50.3 ± 6.1 | 45.3 ± 5.1 | > 100 | – | – | CCCCCCc1cc2cn(C3C=CC(O)C3)c(=O)nc2o1 (centres unmarked) [Compound 3c, 1-(4′-Hydroxy-2′-cyclopenten-1′-yl)-6-hexyl-3H-furano[2,3-d]-pyrimidine-2-one] | – | – | > 100 | >1.9 | >2.2 | – | not toxic | – |
